As for `CCOC(=O)c1cn(-c2cc(NC(=O)OC(C)(C)C)c(F)cc2F)c2cc(F)c(C)cc2c1=O`, the melting point lay within 205 to 207 °C. To `OC[C@@H]1C[C@@H](C2CCCCC2)CN1` belongs 98 to 99 °C; to `C#CCOc1cc(Oc2cccc(Cl)c2)ncn1`, 71.6 °C. To `CS(=O)(=O)Nc1ccc(NC(=O)C(=O)O)cc1` belongs more than 260 °C; to `CC(O)c1ccc(-c2ccc(C(=O)OCc3ccccc3)cc2)cc1` (single isomer, unassigned; (+)), 104 to 106 °C; to `C#Cc1ccc2c(c1)C(c1ccccc1)=NC(C)c1c(C(=O)OCC)ncn1-2` (configuration not stated), 197 to 199 °C. `O=C(O)CS(=O)c1cc2onc(-c3ccccc3F)c2cc1Br` (configuration not stated): the melting point was 173 to 174 °C. To `CC(=O)Nc1ccc(C(NC(c2ccccc2)c2ccccc2)P(O)O)cc1` (configuration not stated) belongs 196 to 200 °C; to `CCCCCCCCCCCCCCCCCCNC(=O)Nc1ccc(O)cc1`, 144 °C. To `CN(CCOc1ccc(CC2SC(=O)NC2=O)cc1)C(=O)c1ccccc1` (configuration not stated) belongs 139 to 142 °C; to `c1ccc2c(c1)Cn1c(cc3ccccc31)CN2`, 176 to 177 °C.

Consider `Nc1c(Cl)cc(C(O)CNCCCCCCOCCc2ccccn2)cc1C(F)(F)F` (configuration not stated), for which the melting point was 51.5 to 53 °C. Consider `COc1cc(CNC(=O)c2nc3ccc(F)c(OCCc4ccc(-c5c(O)noc5C)cc4)c3c(=O)[nH]2)ccc1F`, for which the melting point was 240 to 242 °C. To `Oc1cc(C(F)(F)F)nc2cccc(C(F)(F)F)c12` belongs 314 to 315 °C; to `Fc1ccc(-c2ccn(C3CCNC3)c2-c2ccncc2)cc1` (configuration not stated), 145 to 147 °C; to `CC(C)N(CCCN1C(=O)C(=O)c2ccccc21)C(C)C`, 49 to 50 °C. To `N=C(NCc1cnc(Cl)s1)N[N+](=O)[O-]` belongs 160 to 162 °C; to `C=C(CC1(CC)C(=O)CCC1=O)C1=CCCc2cc(OC)ccc21`, 100 to 125 °C. The molecule `O=C(Cn1nnc2ccccc21)Nc1ccc(-n2nc(C(F)(F)F)cc2C2CC2)nc1` displayed a melting point of 189 to 192 °C. In turn, `CCOC(=O)c1cn2c(Cl)cccc2n1` showed a melting point of 143 to 145 °C. As to `COc1cc2c(cc1Nc1ncc(Cl)c(Nc3cccnc3OC)n1)CCN(CC(=O)N(C)C)CC2`, the melting point fell in the range of 68 to 76 °C. For `OCc1cc(C2CN(CCCCCCOCCCCc3ccccc3)CO2)ccc1O` (racemic), the melting point is 72 to 75 °C.

Take `CCCN1CCO[C@@H]2c3cc(C(=O)N(C)C)ccc3CC[C@H]21` (relative stereo): the melting point is 85 to 87 °C. `Cc1c(CCNC(=O)OC(C)(C)C)c2cc(S(=O)(=O)c3cc(F)cc(F)c3)ccc2n1C` yielded a melting point of 182 to 186 °C. As to `CC(C)(C)CNc1nc(Cl)cc(Cl)n1`, the melting point was 63 to 66 °C. Next, `COc1cc(OC)cc(-c2cc(=O)c3ccc(OCC4CO4)cc3o2)c1` (configuration not stated): 181 to 182 °C; `CC(C)c1ccc(NCc2ccc(Br)cc2)cc1`: 30 °C.

Molecule `CC1(C)CC(O)CC2(C)OC(=O)C=C12` (configuration not stated) yielded a melting point of 148 to 149 °C. In turn, `CCOC(=O)c1cnc(N2CCN(Cc3ccccc3)CC2)nc1O` showed a melting point of 151 to 153 °C.

`CCNC(=O)NCCC1CCc2ccc3nc(C)oc3c21` (configuration not stated) yielded a melting point of 136 to 138 °C. Next, `CCON=C(C(C)=NO)c1ccc(OC[Si](C)(C)c2ccc(F)cc2)cc1`: 100 to 102 °C; `COc1nc(N)nc2c1ncn2COC(CO)CO`: 162 to 163 °C; `COc1ccc(S(=O)(=O)CCCc2ccc(CC(=O)O)cc2)cc1`: 149 to 150 °C. In turn, `O=[N+]([O-])c1cccc(NN=C(c2ccc(O)cc2)c2ccc(O)cc2)c1` came in with a melting point of 160 to 162 °C. To `COC(=O)CC(NC(=O)C(CSC(C)=O)Cc1ccccc1)c1ccc2ccccc2c1` (configuration not stated) belongs 133 to 135 °C; to `Nc1ncc(F)cc1I`, 70 °C. `Fc1ccc2[nH]cc([C@H]3CC[C@H](NCc4ccccc4)CC3)c2c1` registered a melting point of 131 to 133 °C. To `CC1(C)COc2ccc(C#N)cc21` belongs 70 to 71 °C; to `COc1ccc(OC)c2c1CCC(NC(C)=O)C2` (configuration not stated), 156 to 158 °C.

Turning to `CCc1ccc(-c2ccc(-c3ccc(CC)s3)c(F)c2)cc1`, the melting point was 67 °C.

In turn, `CCC1(Cc2nc[nH]c2C)CCc2c(C)c3ccccc3n2C1=O` (configuration not stated) had a melting point of 202 to 204 °C. As for `CC(C)Cn1c(=O)n(C)c(=O)c2cnc(N)nc21`, the melting point lay within 249 to 250 °C.

Consider `Cc1cc(N)ccc1N1CCOCC1`, for which the melting point is 83 to 84 °C.

`O=C(C1CCC1)N1CCSCC1` yielded a melting point of 39 to 40 °C. To `CCn1c(C2CCCO2)nc2c(N)nc(OCCc3ccccc3)nc21` (configuration not stated) belongs 121 to 123 °C.

The molecule `O=C(NC1N=C(c2ccccc2F)c2ccccc2NC1=O)c1ccc[nH]1` (racemic) came in with a melting point of 271 to 274 °C. Next, `Nc1cc([N+](=O)[O-])c(N)cc1SCC(O)CO` (configuration not stated): 164 °C.

In the case of `CN(C)c1ccc(C(=O)NC(=O)Nc2ccc3c(c2)NC(=O)/C3=C\c2ccc[nH]2)cc1`, the melting point was in the range of 285 to 290 °C. To `CC1(C)COS(=O)(=O)OC1` belongs 80 to 82 °C; to `Oc1ccc(C(c2ccc(O)cc2)(c2ccc(I)cc2)C(F)(F)F)cc1`, 187 to 189 °C; to `BrCc1cc(I)cc(I)c1I`, 120 to 121 °C. Molecule `CC(=O)Nc1onc(-c2ccccc2)c1Cl` had a melting point of 141 to 142 °C. To `Cn1nc2c(oc3cc(Cl)ccc32)c1N` belongs 210 to 211 °C; to `FC(F)(F)c1cccc(Nc2ccccc2-c2n[nH]c(=S)s2)c1`, 140 to 142 °C; to `COP(=O)(CNC(=O)[C@H](C)NC(=O)[C@H](C)NC(=O)OCc1ccccc1)OC`, 106 to 108 °C. Next, `CCCOc1ccc(-c2scc(-c3ccccc3Cl)c2CC(=O)NC(=N)NCCCO)cc1C`: 73 to 76 °C. Next, `COC(=O)c1cccc(CNC(C)=O)c1C(=O)OC`: 177 to 179 °C. As to `Cc1nn(-c2ccccn2)c2[nH]c3cccc(C(=O)O)c3c(=O)c12`, the melting point lay in the range of 303 to 306 °C. Next, `CCCc1nc2c(N)nc3cc(OCCCn4cccc4)ccc3c2s1`: 152 to 154 °C; `CC(=O)N(CC1CC(c2ccc(Cl)cc2)=NO1)c1nnc(C)s1` (configuration not stated): 195 to 197 °C; `CC(=O)Nc1cc(C)c(OC(C)=O)cc1C`: 177 °C.

In the case of `CCOC(=O)[C@@H]1Cc2ccc([N+](=O)[O-])cc2CN1`, the melting point was 94 to 95 °C. To `CCCn1nc(SCCCCC(=O)O)c(C(=O)O)c1Cc1cc2c(cc1Cl)OCO2` belongs 185 °C; to `COc1cc(OC)nc(NN)n1`, 94 °C. `COc1ccc2nn(C)cc2c1C1CC1CNC(C)=O` (configuration not stated) gave a melting point of 104 to 105 °C. Next, `CC1(C)Oc2c(ccc3oc(C(=O)O)cc(=O)c23)-c2ccc(Cl)cc21`: 257 to 258 °C; `O=C1c2ccccc2C(=O)N1OCCCC#Cc1ccc(F)cc1`: 85 to 88 °C.

As to `Clc1ccc(CC(OC2CCCC(Cn3ccnc3)O2)c2ccccc2)c(Cl)c1` (configuration not stated), the melting point fell in the range of 118 to 120 °C. Consider `CC(C)OP(=O)(OCN1C(=O)c2c(C(C)C)cc(OCC(=O)O)cc2S1(=O)=O)OC(C)C`, for which the melting point fell in the range of 118 to 125 °C.

As to `COc1cc2ncc(C#N)c(Nc3ccc(F)c(Cl)c3)c2cc1NC(=O)C=CCN(CC(C)O)CC(C)O` (configuration not stated), the melting point was 122 to 125 °C. Next, `CCCCc1ncc(/C=C(\Cc2cccs2)C(N)=O)n1Cc1ccccc1Cl`: 182 to 184 °C.

`CCn1c(=N)c(-c2cc(OC)cc(OC)c2)cc2cnc(SC)nc21` had a melting point of 93 to 95 °C. The molecule `Cc1sc(-c2ccc(F)cc2)nc1O` came in with a melting point of 173 to 174 °C. Molecule `COC(=O)CCCC#Cc1cc(Cl)ccc1NS(=O)(=O)c1ccc2nc(N)oc2c1` gave a melting point of 135 °C. In the case of `CN1CCN(CCC#Cc2csc3ncc(C#N)c(Nc4ccc5[nH]ccc5c4)c23)CC1`, the melting point is 184 to 186 °C. `CC(C)NC(C(N)=S)c1ccccc1` (configuration not stated) registered a melting point of 98.6 °C. `CC(=S)c1cncn1C(c1ccccc1)c1ccccc1` returned a melting point of 98 °C.

`CN1CCCC(C(=O)OC2c3ccccc3C(=O)N2c2ccc3ccc(Cl)nc3n2)C1` (configuration not stated) had a melting point of 211 °C. Next, `O=C(O)c1cccc(-c2nc(=O)c3ccccc3s2)n1`: 260 °C; `CCOC(C)OCC(C)C1CCC2C3C=CC4=CC(=O)C5OC5C4(C)C3CCC12C` (configuration not stated): 91 to 93 °C; `COc1cc(C)cc(OC)c1N(C)C(C)=O`: 160 to 161 °C.

Consider `CCOC(=O)c1[nH]c2cc(Br)c(Cl)cc2c1-c1ccccc1`, for which the melting point was 205 to 206 °C.

`Cc1cc(C2(C(F)(F)F)CC(c3ccc(S(C)=O)cc3)=NO2)ccc1NC(=O)c1cccc(I)c1C(=O)NC(C)C` (configuration not stated) displayed a melting point of 134 to 152 °C.

As for `Cc1nnc(CCl)n1-c1ccc(Cl)cc1C(=O)c1ccccc1`, the melting point was in the range of 139 to 140 °C. To `CCCCCCCCCCCCc1nnn(C(CCC)C(=O)Nc2c(OC)cc(OC)cc2OC)n1` (configuration not stated) belongs 146 to 148 °C; to `CCOC(=O)CC1(S(N)(=O)=O)c2ccccc2-c2ccccc21`, 167 to 170 °C. `CC(C)(C)OC(=O)NCCCCn1c(=O)c2cccc3ncc(c1=O)n32` came in with a melting point of 118 to 119 °C. For the molecule `Cn1ncc(C2=CC(=O)CCC2)c1S(N)(=O)=O`, the melting point is 160 to 165 °C.

As for `O=C(Nc1cccc2c1C(=O)c1c-2n[nH]c1-c1ccc(C(=O)NC2CCCCC2)s1)NN1CCOCC1`, the melting point lay within 264 to 267 °C. On to `COC(=O)C1=C(SCc2ccc(OC)cc2)C2=C(CC=CC=C2)CC1`, for which the melting point lay within 79 to 81 °C.

The molecule `CS(=O)(=O)c1cccc(-n2ccc(=O)c(-c3ccnn3-c3ccccc3)n2)c1` showed a melting point of 199 to 200 °C. `N#CCc1cc(O)cc2nc(-c3ccc(O)cc3)oc12` returned a melting point of 170 to 180 °C.

By melting point is commonly meant the temperature, or range, at which the solid turns liquid.

These data come from a melting point compilation (Tetko et al.; mined from patent text by program, amines drawn as free bases though some values may be those of a salt).
